The values that follow come from patent US20260265189A1, “NOVEL COMPOUND, AND PHARMACEUTICAL COMPOSITION COMPRISING SAME AS ACTIVE INGREDIENT” (SAPIENSBIO INC., priority 2022, published 2026).

For series [1] the following is noted: cited from earlier work.
For the next series, the system named is α-SMA in MRC5 cells. The experiment in a line: inhibition of α-SMA formation in TGF-β1-treated MRC5 cells (confocal imaging). The format is cell-based, human. Particulars: TGF-β1 5 ng/mL, 70 hours; for intracellular α-SMA formation: MRC5, compound 10 μM, FIGS. 2A, 2B. As for the experimental part: (§1) It is known that when the process of pulmonary fibrosis results in structural changes in cells, the level of F-actin increases. Therefore, to confirm the therapeutic efficacy of the compounds of the present invention for pulmonary fibrosis-related diseases, the structural changes of cells after treating fibrosis-induced MRC5 with the compounds of the present invention were measured by the degree of inhibition of F-actin and α-SMA formation.
(§2) Specifically, MRC5 cells were treated with Compound 32 (10 μM) or Compound 42 (10 μM) according to the present invention, CK-666 (actin polymerization inhibitor, 10 μM), nintedanib (1 μM), or DMSO, which had been dissolved in a 0.5% fetal bovine serum (FBS)-containing medium, and 2 hours later, the cells were treated with TGF-β1 (5 ng/mL) to cause fibrosis. Due to strong cytotoxicity of the drug of nintedanib, all cells die when treated with nintedanib at the same concentration (10 μM) as that of the compound of the present invention, so it is impossible to conduct a comparative experiment. Therefore, the effect was confirmed by treating the cells with 1 μM nintedanib. 70 hours later, the cells were fixed with a 2% paraformaldehyde solution for 10 minutes, treated with a 0.1% Triton X-100 solution for 10 minutes to provide cell membrane permeability, and treated with a 1% bovine serum albumin (BSA) solution to prevent non-specific binding. […] High-resolution F-actin images acquired with a STELLARIS 5 confocal microscope (Leica) were quantitatively represented by standardizing F-actin stained with rhodamine phalloidin using Alexa Fluor™ Plus 488-labeled GAPDH using self-developed analysis software through programming. […] High-resolution α-SMA images acquired with a STELLARIS 5 confocal microscope (Leica) were quantitatively represented by standardizing α-SMA stained with an anti-α-SMA-FITC antibody with Alexa Fluor™ Plus 488-labeled GAPDH using self-developed analysis software through programming.

The subject of another series is MRC5 cells. Briefly: cytotoxicity in MRC5 cells. The format is cell-based, human. Particulars: 10 μM.
Series [2] concerns α-SMA expression in MRC5 cells. Particulars: stated as known; cited from earlier work.
For another series, the system named is F-actin in MRC5 cells. Briefly: inhibition of F-actin formation in TGF-β1-treated MRC5 cells (confocal imaging). Format: cell-based, human. Particulars: TGF-β1 5 ng/mL, 70 hours; for intracellular F-actin formation: MRC5, compound 10 μM, FIGS. 2C, 2D. As for the experimental part:
as §1, §2

In series [3] the test system is α-SMA expression in MRC5 cells. Briefly: inhibition of α-SMA expression in MRC5 cells, image screening method. The format is cell-based. Particulars: Homo sapiens; MRC5, compound 10 μM, TGF-β1 5 ng/mL, 72 hours, relative to TGF-β1 alone; read-out: Inhibitory activity (α-SMA expression inhibition). In short, it runs like this: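 MRC5 cells exposed to compound (10 μM) or DMSO with TGF-β1 (5 ng/mL) for 72 h, then fixed, permeabilised, blocked and immunostained for α-SMA (FITC) and GAPDH. Image-based quantitation; α-SMA level with compound plus TGF-β1 expressed relative to TGF-β1 alone.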

Series [4] deals with IL-6 secretion by M1 macrophages derived from THP-1. The experiment in a line: IL-6 secretion by LPS-activated THP-1-derived M1 macrophages (cytometric bead array). Particulars: LPS 10 ng/mL 6 hours, compound 1 μM or 10 μM, FIG. 3. The format is cell-based, human. The protocol:
IL-6 is one of the pro-inflammatory cytokines secreted by activated macrophages, M1 macrophages, and is a potent trigger of fibrosis. Therefore, to evaluate the inhibitory activity of the compounds according to the present invention to inhibit pulmonary fibrosis through the inhibition of inflammatory effects, the extent of IL-6 secretion by macrophages after treatment of activated macrophages with the compounds was compared.
First, macrophages were prepared through the following process: 1 mL of a medium containing 5×10^5 cells/mL of THP-1 cells (Korean Cell Line Bank; KCLB NO. 40202) grown in a complete medium (a medium in which Roswell Park Memorial Institute [RPMI] is supplemented with 10% [vol/vol] fetal bovine serum [FBS] and 1% [vol/vol] penicillin/streptomycin [P/S]) was dispensed by 1 mL into each well of a 12-well plate. […]
Subsequently, the measurement of a cytokine level was performed through the following process: the secured complete medium was centrifuged at 13,000 RPM for 10 minutes in a 4° C. centrifuge, and then a supernatant was transferred to a new 1.5 mL microcentrifuge tube. […] The amount of IL-6 binding to the beads was measured using a Novocyte 3000 flow cytometer (Agilent).

As to `COC(=O)c1ccc2c(c1)NC(=O)/C2=C(\Nc1ccc(N(C)C(=O)CN2CCN(C)CC2)cc1)c1ccccc1` [nintedanib], in series [1] (IPF treatment, stated as known), the therapeutic effect is listed as 10%. Also, the lung function improvement entry in series [1] (clinical use as therapeutic drug for pulmonary fibrosis) is “about 10%”. Also, the “effect of inhibiting α-SMA formation” value in the series with α-SMA in MRC5 cells (MRC5, nintedanib 1 μM) is “lower than Compounds 32 and 42”. Also, the cytotoxicity entry in the series with MRC5 cells was “all cells die”. The α-SMA inhibitory activity in series [2] is on record as 0%. Further, in the series with F-actin in MRC5 cells (MRC5, nintedanib 1 μM), the F-actin formation result is “did not inhibit”.

For the compound `CC(C)N1CC(NC(=O)N2CCN(c3ccc(F)cc3)c3cc(F)ccc32)C1` [Compound 42, 6-fluoro-4-(4-fluorophenyl)-N-(1-isopropylazetidin-3-yl)-3,4-dihydroquinoxaline-1(2H)-carboxamide], the inhibition at 10 µM in series [3] is 50 to 70%. Further, in the series on α-SMA in MRC5 cells, the “intracellular α-SMA formation” value is “decreased to a level similar to that in the group not treated with TGF-β1”. Also, the IL-6 production entry in series [4] is given as “decrease”. Besides, in the series with F-actin in MRC5 cells, the “intracellular F-actin formation” value is on record as “decreased to a level similar to that in the group not treated with TGF-β1”.

For `CC(C)CN1CCC(NC(=O)N2CCN(c3ccc(F)cc3)c3cc(F)ccc32)CC1` [Compound 32, 6-fluoro-4-(4-fluorophenyl)-N-(1-isobutylpiperidin-4-yl)-3,4-dihydroquinoxaline-1(2H)-carboxamide], the inhibition at 10 µM in series [3] is ≥ 70%. The “intracellular α-SMA formation” value with α-SMA in MRC5 cells is “decreased to a level similar to that in the group not treated with TGF-β1”. Further, in series [4], the IL-6 production entry was “decrease”. In addition, in the series on F-actin in MRC5 cells, the “intracellular F-actin formation” value was “decreased to a level similar to that in the group not treated with TGF-β1”.

A word on the inhibition: it is the share of the control response that was lost under treatment.
